The IC50 is the concentration that gives 50% inhibition. Read a low IC50 as higher potency.

SMILES strings stand for the structures. Bounds are passed on as bounds.

The subject of test [1] is IL-17A-induced G-CSF production in human normal keratinocyte (NHK). Nature of the test: NHK assay: IL-17A-induced G-CSF production in normal human keratinocytes. The settings on record: 24 h, IL-17A 5 ng/mL, average if tested more than once. In kind it is cell-based. Put shortly:
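Compound titrations are first mixed with recombinant human IL-17A for 1 h at room temperature. The mixture goes onto adult normal human keratinocytes (final IL-17A 5 ng/mL, 5% FBS, 0.2% DMSO) for 24 h at 37 °C. Secreted G-CSF is then measured by HTRF and IC50 fitted.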

The next test concerns the target T1, IL-17A : IL-17RA binding (Homo sapiens, UniProt Q16552, K93Q).
T1 construct: Name: IL-17A-Flag
The experiment in a line: IL-17A(FLAG-tagged):IL-17RA(His-tagged) binding disruption Eu-HTRF assay, Protocol 1. The note with it: FLAG-IL-17A 2.5 nM at 2x final concentration; average if tested more than once. Put shortly:
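IC50 came from a one-site competition fit of the acceptor/donor (665/620 nm) HTRF ratio. His-tagged IL-17RA, Eu-anti-FLAG and D2-anti-His were added after a 1 h rt compound preincubation with FLAG-tagged IL-17A dimer in PBS/0.01% Triton X-100, followed by 2 h at rt before reading.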
A general note: In TR-FRET formats the signal depends on donor and acceptor labels being close together.

T1 sequence (Q16552 with tags, fused parts or gaps K93Q): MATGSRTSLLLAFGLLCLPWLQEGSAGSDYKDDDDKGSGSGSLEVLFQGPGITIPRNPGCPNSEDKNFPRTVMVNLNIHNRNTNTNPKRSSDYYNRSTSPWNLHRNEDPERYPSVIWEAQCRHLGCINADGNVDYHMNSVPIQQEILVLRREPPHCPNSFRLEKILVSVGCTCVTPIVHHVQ

For `Cc1n[nH]cc1C(=O)N[C@H](c1nc2cc([C@@H](C)NC(=O)CCC(F)(F)F)ccc2[nH]1)C1CCC(F)(F)CC1` [Example 25, N—[(S)-(4,4-Difluorocyclohexyl)-[6-[(1R)-1-(4,4,4-trifluorobutanoylamino)ethyl]-1H-benzimidazol-2-yl]methyl]-3-methyl-1H-pyrazole-4-carboxamide], the concentration for half-maximal inhibition (IC50) in test [1] (Homo sapiens, Keratinocyte) was more than 100 nM; at IL-17A : IL-17RA binding, more than 100 nM.
Turning to `C[C@@H](NC(=O)CCC(F)(F)F)c1ccc2[nH]c([C@@H](NC(=O)c3cnnn3CCOC(F)(F)F)C3CCC(F)(F)CC3)nc2c1` [Example 36, N—[(S)-(4,4-Difluorocyclohexyl)-[6-[(1R)-1-(4,4,4-trifluorobutanoylamino)ethyl]-1H-benzimidazol-2-yl]methyl]-3-[2-(trifluoromethoxy)ethyl]triazole-4-carboxamide], the IC50 in test [1] (Homo sapiens, Keratinocyte) is 50 to 100 nM; at IL-17A : IL-17RA binding it was more than 100 nM.
Consider `C[C@@H](NC(=O)CCC(F)(F)F)c1ccc2[nH]c([C@@H](NC(=O)c3cncn3CCC(F)(F)F)C3CCC(F)(F)CC3)nc2c1` [Example 216, N—((S)-(4,4-Difluorocyclohexyl)(5-((R)-1-(4,4,4-trifluorobutanamido)ethyl)-1H-benzo[d]imidazol-2-yl)methyl)-1-(3,3,3-trifluoropropyl)-1H-imidazole-5-carboxamide], for which the IC50 is more than 100 nM in test [1] (Homo sapiens, Keratinocyte) and more than 100 nM at IL-17A : IL-17RA binding.
`Cn1nccc1C(=O)N[C@H](c1nc2cc(C(NC(=O)CCC(F)(F)F)C3CC3)ccc2[nH]1)C1CCC(F)(F)CC1` (single isomer, unassigned) [Example 55, N—((S)-(5-((R*)-Cyclopropyl(4,4,4-trifluorobutanamido)methyl)-1H-benzo[d]imidazol-2-yl)(4,4-difluorocyclohexyl)methyl)-1-methyl-1H-pyrazole-5-carboxamide]: the IC50 (in test [1]; on IL-17A : IL-17RA binding) was more than 100 nM in each case.
Turning to `C[C@@H](NC(=O)CCC(F)(F)F)c1ccc2[nH]c([C@@H](NC(=O)c3ncn(CCC(F)F)n3)C3CCC(F)(F)CC3)nc2c1` [Example 40, N—[(S)-(4,4-Difluorocyclohexyl)-[6-[(1R)-1-(4,4,4-trifluorobutanoylamino)ethyl]-1H-benzimidazol-2-yl]methyl]-1-(3,3-difluoropropyl)-1,2,4-triazole-3-carboxamide], the IC50 was more than 100 nM in test [1] (Homo sapiens, Keratinocyte) and more than 100 nM on IL-17A : IL-17RA binding.
In the case of `CCn1nccc1C(=O)N[C@H](c1nc2cc([C@@H](C)NC(=O)CC(C(F)(F)F)C(F)(F)F)ccc2[nH]1)C1CCC(F)(F)CC1` [Example 127, N—((S)-(4,4-Difluorocyclohexyl)(5-((R)-1-(4,4,4-trifluoro-3-(trifluoromethyl)butanamido)ethyl)-1H-benzo[d]imidazol-2-yl)methyl)-1-ethyl-1H-pyrazole-5-carboxamide], the half-maximal inhibitory concentration (IC50) was less than 50 nM in test [1] (Homo sapiens, Keratinocyte) and 50 to 100 nM on IL-17A : IL-17RA binding.
The corresponding values for `C[C@@H](NC(=O)CCC(F)(F)F)c1ccc2[nH]c([C@@H](NC(=O)c3ncn(C)n3)C3CCC(F)(F)CC3)nc2c1` [Example 32, N—[(S)-(4,4-Difluorocyclohexyl)-[6-[(1R)-1-(4,4,4-trifluorobutanoylamino)ethyl]-1H-benzimidazol-2-yl]methyl]-1-methyl-1,2,4-triazole-3-carboxamide] are more than 100 nM and more than 100 nM.
Take `C[C@@H](NC(=O)CC(C(F)(F)F)C(F)(F)F)c1ccc2[nH]c([C@@H](NC(=O)c3ccnn3CCC(F)(F)F)C3CCC(F)(F)CC3)nc2c1` [Example 126, N—((S)-(4,4-Difluorocyclohexyl)(5-((R)-1-(4,4,4-trifluoro-3-(trifluoromethyl)butanamido)ethyl)-1H-benzo[d]imidazol-2-yl)methyl)-1-(3,3,3-trifluoropropyl)-1H-pyrazole-5-carboxamide]: the IC50 in test [1] (Homo sapiens, Keratinocyte) was 50 to 100 nM; on IL-17A : IL-17RA binding, more than 100 nM.
The corresponding values for `CC(NC(=O)CCC(F)(F)F)c1ccc2nc([C@H](CC(C)(C)C(F)(F)F)NC(=O)c3ccnn3C(C)C)[nH]c2c1` (single isomer, unassigned) [Example 231, 1-Isopropyl-N—((S)-4,4,4-trifluoro-3,3-dimethyl-1-(6-((S*)-1-(4,4,4-trifluorobutanamido)ethyl)-1H-benzo[d]imidazol-2-yl)butyl)-1H-pyrazole-5-carboxamide] are more than 100 nM and more than 100 nM.
Consider `CCCC(NC(=O)CCC(F)(F)F)c1ccc2[nH]c([C@@H](NC(=O)c3ccnn3C)C3CCC(F)(F)CC3)nc2c1` (single isomer, unassigned) [Example 50, N—((S)-(4,4-Difluorocyclohexyl)(5-((S*)-1-(4,4,4-trifluorobutanamido)butyl)-1H-benzo[d]imidazol-2-yl)methyl)-1-methyl-1H-pyrazole-5-carboxamide], for which the IC50 is more than 100 nM in test [1] (Homo sapiens, Keratinocyte) and more than 100 nM at IL-17A : IL-17RA binding.
For the molecule `Cc1nonc1C(=O)N[C@@H](CC(C)(C)C(F)(F)F)c1nc2ccc([C@H](NC(=O)CC(C)C(F)(F)F)C3CC3)cc2[nH]1` (single isomer, unassigned) [Example 179, N—((S)-1-(6-((R)-Cyclopropyl((R*)-4,4,4-trifluoro-3-methylbutanamido)methyl)-1H-benzo[d]imidazol-2-yl)-4,4,4-trifluoro-3,3-dimethylbutyl)-4-methyl-1,2,5-oxadiazole-3-carboxamide], the IC50 in test [1] (Homo sapiens, Keratinocyte) is more than 100 nM; at IL-17A : IL-17RA binding it was less than 50 nM.
Take `C[C@@H](NC(=O)CCC(F)(F)F)c1ccc2[nH]c(C(CC(C)(C)C(F)(F)F)NC(=O)c3cnn(CCC(F)(F)F)n3)nc2c1` (single isomer, unassigned) [Example 219, N—((S*)-4,4,4-Trifluoro-3,3-dimethyl-1-(5-((R)-1-(4,4,4-trifluorobutanamido)ethyl)-1H-benzo[d]imidazol-2-yl)butyl)-2-(3,3,3-trifluoropropyl)-2H-1,2,3-triazole-4-carboxamide]: the IC50 in test [1] (Homo sapiens, Keratinocyte) was more than 100 nM; at IL-17A : IL-17RA binding it was more than 100 nM.
Turning to `C[C@@H](NC(=O)CCC(F)(F)F)c1ccc2[nH]c([C@@H](NC(=O)[C@H]3C[C@@H]3F)C3CCC(F)(F)CC3)nc2c1` [Example 98, (1R,2S)—N—((S)-(4,4-Difluorocyclohexyl)(5-((R)-1-(4,4,4-trifluorobutanamido)ethyl)-1H-benzo[d]imidazol-2-yl)methyl)-2-fluorocyclopropane-1-carboxamide], the concentration for half-maximal inhibition (IC50) is more than 100 nM in test [1] (Homo sapiens, Keratinocyte) and more than 100 nM on IL-17A : IL-17RA binding.
As to `CC(C)CC(NC(=O)CCC(F)(F)F)c1ccc2[nH]c([C@@H](NC(=O)c3ccnn3C)C3CCC(F)(F)CC3)nc2c1` (single isomer, unassigned) [Example 48, N—((S)-(4,4-Difluorocyclohexyl)(5-((S*)-3-methyl-1-(4,4,4-trifluorobutanamido)butyl)-1H-benzo[d]imidazol-2-yl)methyl)-1-methyl-1H-pyrazole-5-carboxamide], the IC50 in test [1] (Homo sapiens, Keratinocyte) was more than 100 nM; on IL-17A : IL-17RA binding it was more than 100 nM.
For the molecule `CC(CC(=O)N[C@@H](c1ccc2nc([C@H](CC(C)(C)C(F)(F)F)NC(=O)c3nonc3C3CC3)[nH]c2c1)C1CC1)C(F)(F)F` (single isomer, unassigned) [Example 182, 4-Cyclopropyl-N—((S)-1-(6-((R)-cyclopropyl((S*)-4,4,4-trifluoro-3-methylbutanamido)methyl)-1H-benzo[d]imidazol-2-yl)-4,4,4-trifluoro-3,3-dimethylbutyl)-1,2,5-oxadiazole-3-carboxamide], the IC50 (in test [1]; at IL-17A : IL-17RA binding) was less than 50 nM in each case.
With `CC(C)n1ncnc1C(=O)N[C@H](c1nc2cc([C@@H](C)NC(=O)CCC(F)(F)F)ccc2[nH]1)C1CCC(F)(F)CC1` [Example 199, N—((S)-(4,4-Difluorocyclohexyl)(5-((R)-1-(4,4,4-trifluorobutanamido)ethyl)-1H-benzo[d]imidazol-2-yl)methyl)-1-isopropyl-1H-1,2,4-triazole-5-carboxamide], the IC50 was more than 100 nM in test [1] (Homo sapiens, Keratinocyte) and more than 100 nM on IL-17A : IL-17RA binding.
As to `C[C@@H](NC(=O)CCC(F)(F)F)c1ccc2[nH]c([C@@H](NC(=O)c3cnn(CC4CC(F)(F)C4(F)F)n3)C3CCC(F)(F)CC3)nc2c1` (stereo partly drawn) [Example 83, N—((S)-(4,4-Difluorocyclohexyl)(5-((R)-1-(4,4,4-trifluorobutanamido)ethyl)-1H-benzo[d]imidazol-2-yl)methyl)-2-((2,2,3,3-tetrafluorocyclobutyl)methyl)-2H-1,2,3-triazole-4-carboxamide], the half-maximal inhibitory concentration (IC50) in test [1] (Homo sapiens, Keratinocyte) is more than 100 nM; on IL-17A : IL-17RA binding, more than 100 nM.
Take `C[C@@H](NC(=O)CCC(F)(F)F)c1ccc2[nH]c([C@@H](NC(=O)c3cnn4c3CCC4)C3CCC(F)(F)CC3)nc2c1` [Example 212, N—((S)-(4,4-Difluorocyclohexyl)(5-((R)-1-(4,4,4-trifluorobutanamido)ethyl)-1H-benzo[d]imidazol-2-yl)methyl)-5,6-dihydro-4H-pyrrolo[1,2-b]pyrazole-3-carboxamide]: the IC50 is more than 100 nM in test [1] (Homo sapiens, Keratinocyte) and more than 100 nM at IL-17A : IL-17RA binding.
On to `CCn1nc(C(=O)N[C@H](c2nc3cc([C@@H](C)NC(=O)CCC(F)(F)F)ccc3[nH]2)C2CCC(F)(F)CC2)cc1C(F)(F)F` [Example 92, N—((S)-(4,4-Difluorocyclohexyl)(5-((R)-1-(4,4,4-trifluorobutanamido)ethyl)-1H-benzo[d]imidazol-2-yl)methyl)-1-ethyl-5-(trifluoromethyl)-1H-pyrazole-3-carboxamide], for which the IC50 was more than 100 nM in test [1] (Homo sapiens, Keratinocyte) and more than 100 nM at IL-17A : IL-17RA binding.

For the origin of these results see patent publication US20240376085A1 (Janssen Pharmaceutica NV, priority 2021, published 2024).
